# Measurements from PubChem BioAssay AID1963847 (Molecular Pharmacology Branch, DTP, NCI, 2024).
# System: 415267-285-R-J2-PDC complex spheroid viability
# Assay: Anticancer human tumor 415267-285-R-J2-PDC patient-derived breast carcinoma cell line growth inhibition [POLQ]
# Settings: for IC50: curve of first compound; for viability, T/C: stronger effect = lower value
# Summary of the method: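 PDC + HUVEC + MSC complex spheroids; POLQ inhibitors ± partner drugs; top conc. at/near clinical Cmax, else 10 microM (SN-38 1 microM), half-log dilutions; 37 degrees C, 5% CO2.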
# [1] = second compound 0.0316 µM, first compound 0.0316 µM
# [2] = second compound 0.0316 µM, first compound 0.1 µM
# [3] = second compound 0.0316 µM, first compound 0.316 µM
# [4] = second compound 0.0316 µM, first compound 1 µM
# [5] = second compound 0.0316 µM, first compound 3.16 µM
# [6] = second compound 0.0316 µM, first compound 10 µM
# [7] = second compound 0.1 µM, first compound 0.0316 µM
# [8] = second compound 0.1 µM, first compound 0.1 µM
# [9] = second compound 0.1 µM, first compound 0.316 µM
# [10] = second compound 0.1 µM, first compound 1 µM
# [11] = second compound 0.1 µM, first compound 3.16 µM
# [12] = second compound 0.1 µM, first compound 10 µM
# [13] = second compound 0.316 µM, first compound 0.0316 µM
# [14] = second compound 0.316 µM, first compound 0.1 µM
# [15] = second compound 0.316 µM, first compound 0.316 µM
# [16] = second compound 0.316 µM, first compound 1 µM
# [17] = second compound 0.316 µM, first compound 3.16 µM
# [18] = second compound 0.316 µM, first compound 10 µM
# [19] = second compound 1 µM, first compound 0.0316 µM
# [20] = second compound 1 µM, first compound 0.1 µM
# [21] = second compound 1 µM, first compound 0.316 µM
# [22] = second compound 1 µM, first compound 1 µM
# [23] = second compound 1 µM, first compound 3.16 µM
# [24] = second compound 1 µM, first compound 10 µM
# [25] = second compound 3.16 µM, first compound 0.0316 µM
# [26] = second compound 3.16 µM, first compound 0.1 µM
# [27] = second compound 3.16 µM, first compound 0.316 µM
# [28] = second compound 3.16 µM, first compound 1 µM
# [29] = second compound 3.16 µM, first compound 3.16 µM
# [30] = second compound 3.16 µM, first compound 10 µM
# [31] = second compound 10 µM, first compound 0.0316 µM
# [32] = second compound 10 µM, first compound 0.1 µM
# [33] = second compound 10 µM, first compound 0.316 µM
# [34] = second compound 10 µM, first compound 1 µM
# [35] = second compound 10 µM, first compound 3.16 µM
# [36] = second compound 10 µM, first compound 10 µM
# 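Also: spheroids exposed to compounds for one week before readout.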
# 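For viability, T/C in this document: luminescence used as stand-in measure of viable cells; 100% = DMSO vehicle control viability.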
smiles,measurement,setting,value
CC1COCCN1c1cc(-c2ccnn2C)c2ccnc(-c3ccn[nH]3)c2n1 (stereo unspecified) + Cc1cccc(N(C)C(=O)C2C(O)CCN2c2nc(C)cc(C(F)(F)F)c2C#N)c1,IC50,second compound 0.0316 µM,< 0.0316 µM
same,IC50,second compound 0.1 µM,< 0.0316 µM
same,IC50,second compound 0.316 µM,< 0.0316 µM
same,IC50,second compound 1 µM,0.0339 µM
same,IC50,second compound 3.16 µM,0.0336 µM
same,IC50,second compound 10 µM,0.0359 µM
same,"viability, T/C",[1],44%
same,"viability, T/C",[2],17.2%
same,"viability, T/C",[3],6.77%
same,"viability, T/C",[4],4.72%
same,"viability, T/C",[5],4.84%
same,"viability, T/C",[6],4.51%
same,"viability, T/C",[7],41.2%
same,"viability, T/C",[8],11.3%
same,"viability, T/C",[9],6.11%
same,"viability, T/C",[10],4.5%
same,"viability, T/C",[11],4.14%
same,"viability, T/C",[12],5.26%
same,"viability, T/C",[13],47.2%
same,"viability, T/C",[14],13.3%
same,"viability, T/C",[15],5.28%
same,"viability, T/C",[16],4.19%
same,"viability, T/C",[17],4.21%
same,"viability, T/C",[18],4.67%
same,"viability, T/C",[19],52.6%
same,"viability, T/C",[20],10.9%
same,"viability, T/C",[21],6.08%
same,"viability, T/C",[22],4.95%
same,"viability, T/C",[23],4.35%
same,"viability, T/C",[24],4.81%
same,"viability, T/C",[25],52.2%
same,"viability, T/C",[26],10.7%
same,"viability, T/C",[27],5.26%
same,"viability, T/C",[28],4.41%
same,"viability, T/C",[29],4.33%
same,"viability, T/C",[30],4.61%
same,"viability, T/C",[31],53.4%
same,"viability, T/C",[32],22.9%
same,"viability, T/C",[33],5.93%
same,"viability, T/C",[34],4.73%
same,"viability, T/C",[35],5.68%
same,"viability, T/C",[36],4.55%
CCCS(=O)(=O)Nc1ccc(F)c(C(=O)c2c[nH]c3ncc(-c4ccc(Cl)cc4)cc23)c1F + Cc1cccc(N(C)C(=O)C2C(O)CCN2c2nc(C)cc(C(F)(F)F)c2C#N)c1,IC50,second compound 0.0316 µM,> 10 µM
same,IC50,second compound 0.1 µM,> 10 µM
same,IC50,second compound 0.316 µM,> 10 µM
same,IC50,second compound 1 µM,> 10 µM
same,IC50,second compound 3.16 µM,> 10 µM
same,IC50,second compound 10 µM,> 10 µM
same,"viability, T/C",[1],98.8%
same,"viability, T/C",[2],111%
same,"viability, T/C",[3],99%
same,"viability, T/C",[4],93.8%
same,"viability, T/C",[5],86.3%
same,"viability, T/C",[6],91.2%
same,"viability, T/C",[7],104%
same,"viability, T/C",[8],93.5%
same,"viability, T/C",[9],93.4%
same,"viability, T/C",[10],102%
same,"viability, T/C",[11],96.5%
same,"viability, T/C",[12],88.9%
same,"viability, T/C",[13],105%
same,"viability, T/C",[14],99.4%
same,"viability, T/C",[15],90.3%
same,"viability, T/C",[16],102%
same,"viability, T/C",[17],97.7%
same,"viability, T/C",[18],86.7%
same,"viability, T/C",[19],105%
same,"viability, T/C",[20],101%
same,"viability, T/C",[21],102%
same,"viability, T/C",[22],99.9%
same,"viability, T/C",[23],107%
same,"viability, T/C",[24],79.3%
same,"viability, T/C",[25],111%
same,"viability, T/C",[26],103%
same,"viability, T/C",[27],104%
same,"viability, T/C",[28],104%
same,"viability, T/C",[29],93.7%
same,"viability, T/C",[30],91.1%
same,"viability, T/C",[31],96.4%
same,"viability, T/C",[32],96%
same,"viability, T/C",[33],109%
same,"viability, T/C",[34],111%
same,"viability, T/C",[35],94%
same,"viability, T/C",[36],73.8%
CCc1cc2c(N3CCc4c(cc(Cn5ccnc5)cc4-c4cn(C)nc4C(F)(F)F)C3=O)ccnc2c(OC)n1 + Cc1cccc(N(C)C(=O)C2C(O)CCN2c2nc(C)cc(C(F)(F)F)c2C#N)c1,IC50,second compound 0.0316 µM,> 10 µM
same,IC50,second compound 0.1 µM,> 10 µM
same,IC50,second compound 0.316 µM,> 10 µM
same,IC50,second compound 1 µM,> 10 µM
same,IC50,second compound 3.16 µM,> 10 µM
same,IC50,second compound 10 µM,> 10 µM
same,"viability, T/C",[1],88.4%
same,"viability, T/C",[2],94.8%
same,"viability, T/C",[3],88.7%
same,"viability, T/C",[4],86.2%
same,"viability, T/C",[5],92.8%
same,"viability, T/C",[6],79.2%
same,"viability, T/C",[7],102%
same,"viability, T/C",[8],99.8%
same,"viability, T/C",[9],80.2%
same,"viability, T/C",[10],89%
same,"viability, T/C",[11],95.4%
same,"viability, T/C",[12],77.2%
same,"viability, T/C",[13],105%
same,"viability, T/C",[14],96.1%
same,"viability, T/C",[15],88.5%
same,"viability, T/C",[16],88.7%
same,"viability, T/C",[17],89.8%
same,"viability, T/C",[18],88.7%
same,"viability, T/C",[19],92.3%
same,"viability, T/C",[20],91.5%
same,"viability, T/C",[21],88.1%
same,"viability, T/C",[22],88.2%
same,"viability, T/C",[23],91.2%
same,"viability, T/C",[24],86.2%
same,"viability, T/C",[25],102%
same,"viability, T/C",[26],98.3%
same,"viability, T/C",[27],82.3%
same,"viability, T/C",[28],101%
same,"viability, T/C",[29],92.2%
same,"viability, T/C",[30],85.4%
same,"viability, T/C",[31],100%
same,"viability, T/C",[32],100%
same,"viability, T/C",[33],99.6%
same,"viability, T/C",[34],99.8%
same,"viability, T/C",[35],82.5%
same,"viability, T/C",[36],77.8%
